Measured values taken from patent EP4722207A1, “OXOISOINDOLINYL-SUBSTITUTED TETRAHYDROPYRIMIDINEDIONE DERIVATIVE AND USE THEREOF” (Gluetacs Therapeutics (Shanghai) Co., Ltd., priority 2023, dated 2024).

Key:
Format in all cases: cell-based
Conditions in all cases: compounds at 50 nM and 500 nM, 24 hours
WEE1 = target: T1, WEE1 (Homo sapiens, UniProt P30291+Q96SW2); experiment: Western-blot assay, substrate protein degradation in hPBMCs: WEE1
T1 construct: effects of the compounds of the present disclosure on the expression of target proteins in cells; endogenous in cells; host or cells: human PBMCs (hPBMCs)
T1 sequence (P30291 whole entry): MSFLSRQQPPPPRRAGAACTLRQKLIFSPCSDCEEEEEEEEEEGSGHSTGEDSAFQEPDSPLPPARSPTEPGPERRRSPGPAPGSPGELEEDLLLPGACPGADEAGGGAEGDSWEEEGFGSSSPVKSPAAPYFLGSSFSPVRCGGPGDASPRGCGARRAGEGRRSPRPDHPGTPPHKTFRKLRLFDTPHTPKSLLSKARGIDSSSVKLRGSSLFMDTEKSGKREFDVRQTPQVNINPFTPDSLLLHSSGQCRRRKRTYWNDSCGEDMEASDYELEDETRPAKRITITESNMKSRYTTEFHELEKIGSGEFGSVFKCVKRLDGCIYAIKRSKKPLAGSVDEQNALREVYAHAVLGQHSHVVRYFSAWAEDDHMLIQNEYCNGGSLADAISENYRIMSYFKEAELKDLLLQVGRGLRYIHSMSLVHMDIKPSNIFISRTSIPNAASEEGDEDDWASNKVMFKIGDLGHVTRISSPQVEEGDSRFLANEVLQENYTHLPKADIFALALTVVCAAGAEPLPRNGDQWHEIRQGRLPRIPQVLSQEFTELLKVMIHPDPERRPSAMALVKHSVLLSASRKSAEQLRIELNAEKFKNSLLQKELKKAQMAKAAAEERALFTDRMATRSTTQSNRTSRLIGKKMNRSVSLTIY
T1 sequence (Q96SW2 whole entry): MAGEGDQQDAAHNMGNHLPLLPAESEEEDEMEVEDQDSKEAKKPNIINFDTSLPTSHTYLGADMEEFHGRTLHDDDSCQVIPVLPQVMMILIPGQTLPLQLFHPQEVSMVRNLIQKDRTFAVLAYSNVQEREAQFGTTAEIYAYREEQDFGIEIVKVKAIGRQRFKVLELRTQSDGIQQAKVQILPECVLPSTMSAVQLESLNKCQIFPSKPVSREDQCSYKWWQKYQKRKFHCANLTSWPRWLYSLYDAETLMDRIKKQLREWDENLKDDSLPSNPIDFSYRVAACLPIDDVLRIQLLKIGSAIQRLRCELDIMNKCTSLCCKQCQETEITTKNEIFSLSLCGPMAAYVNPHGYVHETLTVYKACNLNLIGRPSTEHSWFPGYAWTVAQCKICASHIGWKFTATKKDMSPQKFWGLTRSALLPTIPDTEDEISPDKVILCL
T1 sequence (Q16531 whole entry partner): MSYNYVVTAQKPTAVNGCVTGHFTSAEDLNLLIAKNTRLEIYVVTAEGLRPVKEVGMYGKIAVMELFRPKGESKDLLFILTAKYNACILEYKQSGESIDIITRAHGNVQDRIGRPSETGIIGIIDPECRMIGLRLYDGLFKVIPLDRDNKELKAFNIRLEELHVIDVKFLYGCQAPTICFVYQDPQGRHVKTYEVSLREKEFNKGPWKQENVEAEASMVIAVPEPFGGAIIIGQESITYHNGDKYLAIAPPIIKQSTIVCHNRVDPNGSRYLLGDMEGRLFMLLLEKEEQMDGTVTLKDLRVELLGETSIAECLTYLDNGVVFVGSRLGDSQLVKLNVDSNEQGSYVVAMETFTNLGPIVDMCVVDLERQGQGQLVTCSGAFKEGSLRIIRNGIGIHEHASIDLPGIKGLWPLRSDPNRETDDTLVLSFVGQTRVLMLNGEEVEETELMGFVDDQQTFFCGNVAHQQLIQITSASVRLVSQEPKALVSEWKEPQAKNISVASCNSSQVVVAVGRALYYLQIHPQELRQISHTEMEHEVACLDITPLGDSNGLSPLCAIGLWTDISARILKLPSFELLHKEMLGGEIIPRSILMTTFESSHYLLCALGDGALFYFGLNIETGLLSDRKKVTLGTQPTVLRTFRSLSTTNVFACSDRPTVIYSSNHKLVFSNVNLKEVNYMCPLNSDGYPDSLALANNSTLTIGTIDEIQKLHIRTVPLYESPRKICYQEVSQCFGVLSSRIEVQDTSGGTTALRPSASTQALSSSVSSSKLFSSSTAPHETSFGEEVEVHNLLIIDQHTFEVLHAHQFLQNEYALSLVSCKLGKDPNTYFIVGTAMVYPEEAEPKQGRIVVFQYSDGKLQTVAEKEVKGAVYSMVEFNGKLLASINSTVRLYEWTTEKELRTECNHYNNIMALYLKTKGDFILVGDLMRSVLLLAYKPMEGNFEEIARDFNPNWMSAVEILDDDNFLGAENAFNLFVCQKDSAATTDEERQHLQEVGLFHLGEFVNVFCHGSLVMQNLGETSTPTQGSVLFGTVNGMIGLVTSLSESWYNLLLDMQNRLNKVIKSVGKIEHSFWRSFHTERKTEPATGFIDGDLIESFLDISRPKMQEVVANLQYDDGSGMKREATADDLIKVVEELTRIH

GSPT1 = target: T2, GSPT1 (Homo sapiens, UniProt P15170+Q96SW2); experiment: Western-blot assay, substrate protein degradation in hPBMCs: GSPT1
T2 construct: effects of the compounds of the present disclosure on the expression of target proteins in cells; endogenous in cells; host or cells: human PBMCs (hPBMCs)
T2 sequence (P15170 whole entry): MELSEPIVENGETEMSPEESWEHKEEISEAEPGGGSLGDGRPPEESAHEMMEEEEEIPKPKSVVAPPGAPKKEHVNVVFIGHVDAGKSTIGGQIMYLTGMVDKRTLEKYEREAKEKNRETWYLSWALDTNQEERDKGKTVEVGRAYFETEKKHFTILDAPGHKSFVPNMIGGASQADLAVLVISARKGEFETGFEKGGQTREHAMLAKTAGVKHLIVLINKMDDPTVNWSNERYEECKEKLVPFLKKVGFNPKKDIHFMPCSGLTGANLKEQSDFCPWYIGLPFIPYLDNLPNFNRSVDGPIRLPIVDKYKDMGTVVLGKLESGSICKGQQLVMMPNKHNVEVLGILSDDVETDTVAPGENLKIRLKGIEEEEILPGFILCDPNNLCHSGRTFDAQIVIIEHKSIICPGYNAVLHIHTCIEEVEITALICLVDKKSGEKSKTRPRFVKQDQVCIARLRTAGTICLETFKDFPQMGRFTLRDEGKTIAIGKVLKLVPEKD
T2 sequence (Q96SW2 whole entry): as the sequence (Q96SW2 whole entry) above
T2 sequence (Q16531 whole entry partner): as the sequence (Q16531 whole entry partner) above

IKZF2 = target: T3, IKZF2 (Homo sapiens, UniProt Q96SW2+Q9UKS7); experiment: Western-blot assay, substrate protein degradation in hPBMCs: IKZF2
T3 construct: effects of the compounds of the present disclosure on the expression of target proteins in cells; endogenous in cells; host or cells: human PBMCs (hPBMCs)
T3 sequence (Q9UKS7 whole entry): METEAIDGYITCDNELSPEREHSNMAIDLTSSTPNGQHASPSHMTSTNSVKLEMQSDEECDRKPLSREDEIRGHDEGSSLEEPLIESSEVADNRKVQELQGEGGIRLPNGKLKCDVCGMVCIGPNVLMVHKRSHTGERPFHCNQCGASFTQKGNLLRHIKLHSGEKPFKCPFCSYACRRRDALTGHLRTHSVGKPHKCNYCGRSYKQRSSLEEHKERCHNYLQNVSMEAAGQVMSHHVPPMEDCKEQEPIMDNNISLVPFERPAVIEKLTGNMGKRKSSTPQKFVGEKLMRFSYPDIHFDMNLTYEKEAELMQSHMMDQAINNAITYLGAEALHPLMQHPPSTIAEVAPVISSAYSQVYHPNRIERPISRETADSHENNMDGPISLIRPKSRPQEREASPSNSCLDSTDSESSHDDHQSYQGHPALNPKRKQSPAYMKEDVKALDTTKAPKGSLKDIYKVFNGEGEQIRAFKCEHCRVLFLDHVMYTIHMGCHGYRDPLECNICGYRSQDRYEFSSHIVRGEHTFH
T3 sequence (Q96SW2 whole entry): as the sequence (Q96SW2 whole entry) above
T3 sequence (Q16531 whole entry partner): as the sequence (Q16531 whole entry partner) above

IKZF3 = target: T4, IKZF3 (Homo sapiens, UniProt Q96SW2+Q9UKT9); experiment: Western-blot assay, substrate protein degradation in hPBMCs: IKZF3
T4 construct: effects of the compounds of the present disclosure on the expression of target proteins in cells; endogenous in cells; host or cells: human PBMCs (hPBMCs)
T4 sequence (Q9UKT9 whole entry): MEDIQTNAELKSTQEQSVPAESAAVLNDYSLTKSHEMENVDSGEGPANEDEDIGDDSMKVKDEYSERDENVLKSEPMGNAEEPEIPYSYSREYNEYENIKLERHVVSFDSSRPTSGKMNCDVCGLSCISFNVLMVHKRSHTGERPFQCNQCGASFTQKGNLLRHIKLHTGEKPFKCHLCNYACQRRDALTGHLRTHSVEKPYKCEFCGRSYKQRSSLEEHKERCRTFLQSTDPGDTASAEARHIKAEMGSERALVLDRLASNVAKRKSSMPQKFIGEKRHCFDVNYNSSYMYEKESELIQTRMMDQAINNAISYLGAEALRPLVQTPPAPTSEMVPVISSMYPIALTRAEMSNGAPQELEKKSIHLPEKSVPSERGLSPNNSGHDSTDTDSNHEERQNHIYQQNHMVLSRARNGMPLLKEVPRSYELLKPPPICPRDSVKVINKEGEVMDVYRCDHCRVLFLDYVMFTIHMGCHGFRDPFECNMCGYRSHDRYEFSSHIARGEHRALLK
T4 sequence (Q96SW2 whole entry): as the sequence (Q96SW2 whole entry) above
T4 sequence (Q16531 whole entry partner): as the sequence (Q16531 whole entry partner) above

IKZF1 = target: T5, IKZF1 (Homo sapiens, UniProt Q13422+Q96SW2); experiment: Western-blot assay, substrate protein degradation in hPBMCs: IKZF1
T5 construct: effects of the compounds of the present disclosure on the expression of target proteins in cells; endogenous in cells; host or cells: human PBMCs (hPBMCs)
T5 sequence (Q13422 whole entry): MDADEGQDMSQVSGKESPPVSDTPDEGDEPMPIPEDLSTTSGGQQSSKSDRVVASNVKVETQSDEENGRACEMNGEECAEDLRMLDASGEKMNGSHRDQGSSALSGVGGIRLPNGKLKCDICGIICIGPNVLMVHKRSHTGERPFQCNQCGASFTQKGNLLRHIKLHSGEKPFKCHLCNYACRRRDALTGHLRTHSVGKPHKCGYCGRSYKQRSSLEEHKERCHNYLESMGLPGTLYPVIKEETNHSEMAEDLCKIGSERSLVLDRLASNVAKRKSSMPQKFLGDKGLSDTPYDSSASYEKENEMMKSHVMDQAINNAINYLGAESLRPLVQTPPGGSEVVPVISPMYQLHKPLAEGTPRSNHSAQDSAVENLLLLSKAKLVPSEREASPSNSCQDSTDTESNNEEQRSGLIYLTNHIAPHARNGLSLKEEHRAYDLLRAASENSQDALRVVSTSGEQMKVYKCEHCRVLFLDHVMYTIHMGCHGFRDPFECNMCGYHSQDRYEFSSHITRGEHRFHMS
T5 sequence (Q96SW2 whole entry): as the sequence (Q96SW2 whole entry) above
T5 sequence (Q16531 whole entry partner): as the sequence (Q16531 whole entry partner) above

CK1α = target: T6, CK1α (Homo sapiens, UniProt P48729+Q96SW2); experiment: Western-blot assay, substrate protein degradation in hPBMCs: CK1α
T6 construct: effects of the compounds of the present disclosure on the expression of target proteins in cells; endogenous in cells; host or cells: human PBMCs (hPBMCs)

Structure (SMILES) | WEE1 substrate protein remaining % (WEE1) | GSPT1 substrate protein remaining % (GSPT1) | IKZF2 substrate protein remaining % (IKZF2) | IKZF3 substrate protein remaining % (IKZF3) | IKZF1 substrate protein remaining % (IKZF1) | CK1α substrate protein remaining % (CK1α)
O=C1CCN(N2Cc3cc(CN4CCC(c5ccccc5Cl)CC4)ccc3C2=O)C(=O)N1 [GT-06887, 1-(5-((4-(2-chlorophenyl)piperidin-1-yl)methyl)-1-oxoisoindolin-2-yl)dihydropyrimidine-2,4(1H,3H)-dione] | A ("A" is defined as 0% ≤ substrate protein remaining % ≤ 80%) | A ("A" is defined as 0% ≤ substrate protein remaining % ≤ 80%) | A ("A" is defined as 0% ≤ substrate protein remaining % ≤ 80%) | B ("B" is defined as 80%< substrate protein remaining %≤ 100%) | B ("B" is defined as 80%< substrate protein remaining %≤ 100%) | B ("B" is defined as 80%< substrate protein remaining %≤ 100%)
O=C1CCN(N2Cc3cc(CN4CCC(c5ccc(Cl)cc5)CC4)ccc3C2=O)C(=O)N1 [GT-06888, 1-(5-((4-(4-chlorophenyl)piperidin-1-yl)methyl)-1-oxoisoindolin-2-yl)dihydropyrimidine-2,4(1H,3H)-dione] | A ("A" is defined as 0% ≤ substrate protein remaining % ≤ 80%) | A ("A" is defined as 0% ≤ substrate protein remaining % ≤ 80%) | A ("A" is defined as 0% ≤ substrate protein remaining % ≤ 80%) | B ("B" is defined as 80%< substrate protein remaining %≤ 100%) | B ("B" is defined as 80%< substrate protein remaining %≤ 100%) | B ("B" is defined as 80%< substrate protein remaining %≤ 100%)
O=C1CCN(N2Cc3cc(CN4CCC(c5ccccc5F)CC4)ccc3C2=O)C(=O)N1 [GT-06889, 1-(5-((4-(2-fluorophenyl)piperidin-1-yl)methyl)-1-oxoisoindolin-2-yl)dihydropyrimidine-2,4(1H,3H)-dione] | A ("A" is defined as 0% ≤ substrate protein remaining % ≤ 80%) | A ("A" is defined as 0% ≤ substrate protein remaining % ≤ 80%) | A ("A" is defined as 0% ≤ substrate protein remaining % ≤ 80%) | B ("B" is defined as 80%< substrate protein remaining %≤ 100%) | B ("B" is defined as 80%< substrate protein remaining %≤ 100%) | B ("B" is defined as 80%< substrate protein remaining %≤ 100%)
O=C1CCN(N2Cc3cc(CN4CCC(c5ccc(F)cc5)CC4)ccc3C2=O)C(=O)N1 [GT-06890, 1-(5-((4-(4-fluorophenyl)piperidin-1-yl)methyl)-1-oxoisoindolin-2-yl)dihydropyrimidine-2,4(1H,3H)-dione] | A ("A" is defined as 0% ≤ substrate protein remaining % ≤ 80%) | A ("A" is defined as 0% ≤ substrate protein remaining % ≤ 80%) | B ("B" is defined as 80%< substrate protein remaining %≤ 100%) | B ("B" is defined as 80%< substrate protein remaining %≤ 100%) | B ("B" is defined as 80%< substrate protein remaining %≤ 100%) | B ("B" is defined as 80%< substrate protein remaining %≤ 100%)
O=C1CCN(N2Cc3cc(CN4CCC(c5ccccc5C(F)(F)F)CC4)ccc3C2=O)C(=O)N1 [GT-06891, 1-(1-oxo-5-((4-(2-(trifluoromethyl)phenyl)piperidin-1-yl)methyl)isoindolin-2-yl)dihydropyrimidine-2,4(1H,3H)-dione] | A ("A" is defined as 0% ≤ substrate protein remaining % ≤ 80%) | A ("A" is defined as 0% ≤ substrate protein remaining % ≤ 80%) | A ("A" is defined as 0% ≤ substrate protein remaining % ≤ 80%) | B ("B" is defined as 80%< substrate protein remaining %≤ 100%) | B ("B" is defined as 80%< substrate protein remaining %≤ 100%) | B ("B" is defined as 80%< substrate protein remaining %≤ 100%)
O=C1CCN(N2C(=O)c3ccc(CN4CCC(c5cccc(F)c5Cl)CC4)cc3C2=O)C(=O)N1 [GT-06895, 5-((4-(2-chloro-3-fluorophenyl)piperidin-1-yl)methyl)-2-(2,4-dioxotetrahydropyrimidin-1(2H)-yl)isoindoline-1,3-dione] | B ("B" is defined as 80%< substrate protein remaining %≤ 100%) | B ("B" is defined as 80%< substrate protein remaining %≤ 100%) | B ("B" is defined as 80%< substrate protein remaining %≤ 100%) | B ("B" is defined as 80%< substrate protein remaining %≤ 100%) | A ("A" is defined as 0% ≤ substrate protein remaining % ≤ 80%) | B ("B" is defined as 80%< substrate protein remaining %≤ 100%)
O=C1CCN(N2C(=O)c3ccc(CN4CC=C(c5cccc(F)c5Cl)CC4)cc3C2=O)C(=O)N1 [GT-06896, 5-((4-(2-chloro-3-fluorophenyl)-3,6-dihydropyridin-1(2H)-yl)methyl)-2-(2,4-dioxotetrahydropyrimidin-1(2H)-yl)isoindoline-1,3-dione] | B ("B" is defined as 80%< substrate protein remaining %≤ 100%) | B ("B" is defined as 80%< substrate protein remaining %≤ 100%) | B ("B" is defined as 80%< substrate protein remaining %≤ 100%) | B ("B" is defined as 80%< substrate protein remaining %≤ 100%) | A ("A" is defined as 0% ≤ substrate protein remaining % ≤ 80%) | B ("B" is defined as 80%< substrate protein remaining %≤ 100%)
O=C1CCN(N2C(=O)c3ccc(CN4CCN(c5ccc(F)cn5)CC4)cc3C2=O)C(=O)N1 [GT-06965, 2-(2,4-dioxotetrahydropyrimidin-1(2H)-yl)-5-((4-(5-fluoropyridin-2-yl)piperazin-1-yl)methyl)isoindoline-1,3-dione] | B ("B" is defined as 80%< substrate protein remaining %≤ 100%) | B ("B" is defined as 80%< substrate protein remaining %≤ 100%) | A ("A" is defined as 0% ≤ substrate protein remaining % ≤ 80%) | B ("B" is defined as 80%< substrate protein remaining %≤ 100%) | B ("B" is defined as 80%< substrate protein remaining %≤ 100%) | B ("B" is defined as 80%< substrate protein remaining %≤ 100%)
O=C1CCN(N2C(=O)c3ccc(CN4CCN(c5ccc(C(F)(F)F)cn5)CC4)cc3C2=O)C(=O)N1 [GT-06968, 2-(2,4-dioxotetrahydropyrimidin-1(2H)-yl)-5-((4-(5-(trifluoromethyl)pyridin-2-yl)piperazin-1-yl)methyl)isoindoline-1,3-dione] | A ("A" is defined as 0% ≤ substrate protein remaining % ≤ 80%) | B ("B" is defined as 80%< substrate protein remaining %≤ 100%) | A ("A" is defined as 0% ≤ substrate protein remaining % ≤ 80%) | B ("B" is defined as 80%< substrate protein remaining %≤ 100%) | B ("B" is defined as 80%< substrate protein remaining %≤ 100%) | B ("B" is defined as 80%< substrate protein remaining %≤ 100%)
